{"source": "paper PMC11087554", "about": "“The STING agonist IMSA101 enhances chimeric antigen receptor T cell function by inducing IL-18 secretion” (Nature Communications, 2024)", "molecular_target": "T1, STING (stimulator of interferon genes) (Homo sapiens, UniProt Q86WV6)", "T1 construct": "gene STING1; endogenous STING in THP1-ISG-luc cells", "T1 sequence (Q86WV6 whole entry, looked up)": "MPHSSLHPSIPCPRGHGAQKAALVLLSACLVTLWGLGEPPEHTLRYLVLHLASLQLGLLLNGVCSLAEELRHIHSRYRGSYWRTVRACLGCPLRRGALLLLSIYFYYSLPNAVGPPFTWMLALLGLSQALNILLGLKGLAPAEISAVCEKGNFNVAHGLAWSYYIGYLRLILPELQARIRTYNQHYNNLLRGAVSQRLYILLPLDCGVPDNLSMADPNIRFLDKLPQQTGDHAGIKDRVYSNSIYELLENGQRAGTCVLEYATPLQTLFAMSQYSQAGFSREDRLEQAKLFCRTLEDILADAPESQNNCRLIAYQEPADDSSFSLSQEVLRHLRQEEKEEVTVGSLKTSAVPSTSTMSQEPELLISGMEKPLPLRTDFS", "assay": "THP1-ISG-luc ISRE reporter assay with PFO permeabilisation; IFN-beta response lost in STING-KO THP1 cells", "type": "cell-based", "data": [{"substance": "IMSA101", "values": [{"measurement": "EC50", "value": "20 to 30", "unit": "nM"}]}]}
